Measurements from patent US9040266B2, “Cell-based systems for production of methyl formate” (The Regents of the University of California, priority 2009, dated 2015).

Legend:
[1] = molecular target: methyl halide transferase (MHT) (Batis maritima, UniProt Q9ZSZ7); conditions: halide ion as substrate; Attieh et al. 1995, Ni and Hager 1999; cited from earlier work
A. fermentans = conditions: accumulation of fermentation products; cited from earlier work
[2] = tested on: S. cerevisiae W303a lab strain; test: Methyl iodide toxicity assay in yeast; type: cell-based, Saccharomyces cerevisiae; conditions: cultures diluted to OD600 0.05, OD600 at 24 hours, FIG. 11D
Source text: (§1) FIG. 11A-D: Methyl iodide production in recombinant S. cerevisiae. FIG. 11A. CH3I production pathway. The B. maritima MHT is expressed with a N-terminal vacuole targeting tag. The […] MHT methylates iodide ions using SAM as a methyl donor. FIG. 11B, CH3I measured in culture headspace over time. Activity on glucose-grown cells is shown. FIG. 11C, CH3I yields in grams per liter of culture per day. Values for the culturable red algae E. muricata are taken from the literature. Yields from B. maritime MHT-expressing E. coli and S. cerevisiae are calculated by comparison to standard curves. FIG. 11D, CH3I toxicity in yeast. Exponential phase cultures were diluted to an OD600 of 0.05 and commercially available CH3I was added. OD600 was measured at 24 hours of growth. The W303a lab strain is shown in filled boxes, the DNA methylation-sensitive RAD50Δ mutant is shown in open boxes.
(§2) The response of the host organism to toxic effects of an overproduced metabolite is important for development of an integrated industrial process. Methyl halides are SN2 methylating agents known to cause cytotoxic lesions in ssDNA and RNA. […]
(§3) Individual colonies were inoculated in YP media with 2% glucose and grown overnight. […] OD600 was measured by spectrometry with YP media used as a blank. […]

RAD50Δ mutant = type: cell-based, Saccharomyces cerevisiae; conditions: RAD50Δ mutant versus W303a, OD600 at 24 hours
Source text: as §1, §2, §3

[3] = tested on: methyl bromide and methyl iodide production in E. Coli; test: Methyl halide production by heterologous MHTs expressed in E. coli (Example 8, headspace GC/MS); type: cell-based; conditions: FIG. 7
Procedure: Nineteen methyl halide transferase genes from various organisms were codon-optimized and introduced into E. Coli. Production of methyl bromide and methyl iodide was determined for each. […] Group II UBA; Cryptococcus neoformans var. neoformans JEC21; Oryza sativa (japonica cultivar-group); Ostreococcus tauri; Dechloromonas aromatica RCB; Coprinopsis cinerea okayama; Robiginitalea bofirmata HTCC2501; Maricaulis maris MCS10; Flavobacteria bacterium BBFL7; Vitis vinifera and; halorhodospira halophila SL1.
For each strain a single colony was picked and grown overnight (10-14 hrs) in 20 mL of LB miller in a 30 mL glass test tube with aeration (a loose cap) at 37 C and 250 rpm shaking. The culture was spun down in a swinging bucket centrifuge for 5 min @ 3000×g. The cells were resuspended in 20mL of appropriate media (10 g/L Tryptone, 5 g/L Yeast Extract, 165 mM NaX [where X=CI, Br, I]) containing 100 uM IPTG inducer. The cells were sealed with rubber stoppers and parafilm and grown at 37 C with 250 rpm shaking for 1.5 hours. Cultures were taken to the GC/MS and 100 uL of headspace gas was sampled and loaded onto the column. The method run was VOIGT.m. The number of counts for the appropriate mass (MeCl, MeBr, MeI) were reported. Cells were always grown in the presence of 30 ug/mL chloramphenicol.
Methyl halide production was measured as described in the previous Examples. […] C. neoformans JEC21 gave the best methyl bromide and methyl iodide production. Leptospirillum gave the best methyl iodide production.

[4] = tested on: methyl halide production in E. coli on chloride, bromide and iodide; test: MHT library screen for methyl halide activity in E. coli (Example 9B); type: cell-based; conditions: library of 89 genes, FIG. 10A
Source text: As described in Example 9A, to screen for MHTs with high activity in a recombinant host, we synthesized all putative MHTs from the NCBI sequence database and assayed methyl halide production in E. colit. […] These genes were computationally codon optimized for E. coli and yeast expression and constructed using automated whole gene DNA synthesis.
Methyl halide production was sampled by analyzing the headspace gas using GC-MS (Supplementary Information).
Bacteria carrying MHT expression vectors were inoculated from freshly streaked plates and grown overnight. Cells were diluted 100-fold into media containing 1 mM IPTG and 100 mM appropriate sodium halide salt. Culture tubes were sealed with a rubber stopper and grown at 37 degrees for 3 hours. Yeast carrying MHT expression vectors were streaked on uracil dropout plates from freezer stocks (15% glycerol) and grown for 48 hours. Individual colonies were inoculated into 2 mL of synthetic complete uracil dropout media and grown overnight at 30 degrees. Cultures were next inoculated into 100 mL fresh synthetic complete uracil dropout media and grown for 24 hours. Cells were spun down and concentrated to high cell density (OD 50) in fresh YP media with 2% glucose and 100 mM sodium iodide salt. 10 mL of this concentrated culture was aliquoted into 14 mL culture tubes and sealed with a rubber stopper. […]

Question: Which Km [1] does the source give for `[Br-].[K+]` [Br^−, bromide] here?
Answer: 18.5 mM

Question: With `I` [I^−, iodide] as the molecule, how does the Km [1] read?
Answer: 8.5 mM

Question: Which A. fermentans growth (A. fermentans) does the source give for `CC(=O)O` [acetate] here?
Answer: inhibited

Question: Which A. fermentans growth (A. fermentans) does the source give for `CCO` [ethanol] here?
Answer: inhibited

Question: Which “level up to which yeast were resistant to deleterious methylating effects of methyl iodide” value [2] does the source give for `CI` [methyl iodide] here?
Answer: > 5000 µg/mL

Question: What about the “sensitivity to methyl iodide” value (RAD50Δ mutant) of the same molecule?
Answer: increased sensitivity

B1: D. aromatica: methyl halide transferase from Dechloromonas aromatica RCB, SEQ ID NO: 15 (protein, listed as Dechloromonas aromatica)
chain: MSETIKPPEQRPEHPDFWCKRFGEGVTPWDAGKVPMAFVDFVGAQTTPLNSLIPGCGSAWEAAHLAELGWPVTALDFSPLAIEKAREVLGDSPVKLVCADFFTFAPRQPLDLIYERAFLCALPRKLWADWGKQVAELLPSGARLAGFFFLCDQPKGPPFGILPAQLDELLRPNFELIEDQPVGDSVPVFAGRERWQVWRRR
Question: With B1 as the molecule, how does the “halide specificity of methyl halide production” value (shortened to “halide specificity”) [3] read?
Answer: significant specificity for methyl iodide production

B2: C. cinerea: methyl halide transferase (hypothetical protein) from Coprinopsis cinerea okayama, SEQ ID NO: 16 (protein)
chain: MADPNLAPEIRAKMQEIFKPDDRHSWDLLWKENITPWDAGDAQPSLIELIEESGLDFARKGRALVPGCGTGYDAVYLASALGLQTIGMDISESAVEAANRYRDSSGVQGADRAIFQKADFFTYKVPDEERFDLIMDHTFFCAIHPSLRPEWGQRMSELIKPGGYLITICFPMIPKVETGPPYYLRPEHYDEVLKETFEKVYDKVPTKSSENHKDKERMLVWKKK
modifications: Synthetic polypeptide of hypothetical protein of coprinopsis cinerea.
Question: For B2, which “halide specificity” value [3] is on record?
Answer: significant specificity for methyl iodide production

B3: B. maritima: methyl halide transferase from Batis maritima, SEQ ID NO: 3 (protein, listed as Batis maritima)
chain: MSTVANIAPVFTGDCKTIPTPEECATFLYKVVNSGGWEKCWVEEVIPWDLGVPTPLVLHLVKNNALPNGKGLVPGCGGGYDVVAMANPERFMVGLDISENALKKARETFSTMPNSSCFSFVKEDVFTWRPEQPFDFIFDYVFFCAIDPKMRPAWGKAMYELLKPDGELITLMYPITNHEGGPPFSVSESEYEKVLVPLGFKQLSLEDYSDLAVEPRKGKEKLARWKKMNN
Question: Which methyl bromide production ([3]; 165 mM NaX, 100 uM IPTG, 1.5 hours) does the source give for B3 here?
Answer: best

Question: And the “halide specificity” value [3]?
Answer: significant specificity for methyl bromide production

Question: What about the “methyl halide activity on each ion (chloride, bromide, iodide)” value [4] of the same molecule?
Answer: highest activity

B4: Brassica rapa subsp. chinensis: methyl halide transferase from Brassica rapa subsp. chinensis, SEQ ID NO: 6 (protein, listed as Brassica rapa)
chain: MAEVQQNSAHINGENIIPPEDVAKFLPKTVEEGGWEKCWEDGVTPWDQGRATPLVVHLVESSSLPLGRALVPGCGGGHDVVAMASPERYVVGLDISESALEKAAETYGSSPKAKYFTFVKEDFFTWRPNELFDLIFDYVVFCAIEPETRPAWAKAMYELLKPDGELITLMYPITDHDGGPPYKVAFSTYEDVLVPVGFKAVSIEENPYSIATRKGKEKLARWKKIN
Question: For B4, which “halide specificity” value [3] is on record?
Answer: significant specificity for methyl bromide production
